Results published in patent publication US9340590B2 (priority 2011, dated 2016).
Where two headings read alike, the source gives them in different places. Positions of bridges follow the written chain, without caps; N, C: chain ends. Residues, ends and D or L forms follow the SMILES beside them.

Columns and labels:
[1] = target: hNav1.5 (Homo sapiens, UniProt Q14524); test: cell-based
[2] = target: hNav1.3 (Homo sapiens, UniProt Q9NY46); test: cell-based; conditions: IonWorks Quattro, read-out: IWQ Use Nav1.3
Chain of hNav1.3 (Q9NY46 whole entry, looked up): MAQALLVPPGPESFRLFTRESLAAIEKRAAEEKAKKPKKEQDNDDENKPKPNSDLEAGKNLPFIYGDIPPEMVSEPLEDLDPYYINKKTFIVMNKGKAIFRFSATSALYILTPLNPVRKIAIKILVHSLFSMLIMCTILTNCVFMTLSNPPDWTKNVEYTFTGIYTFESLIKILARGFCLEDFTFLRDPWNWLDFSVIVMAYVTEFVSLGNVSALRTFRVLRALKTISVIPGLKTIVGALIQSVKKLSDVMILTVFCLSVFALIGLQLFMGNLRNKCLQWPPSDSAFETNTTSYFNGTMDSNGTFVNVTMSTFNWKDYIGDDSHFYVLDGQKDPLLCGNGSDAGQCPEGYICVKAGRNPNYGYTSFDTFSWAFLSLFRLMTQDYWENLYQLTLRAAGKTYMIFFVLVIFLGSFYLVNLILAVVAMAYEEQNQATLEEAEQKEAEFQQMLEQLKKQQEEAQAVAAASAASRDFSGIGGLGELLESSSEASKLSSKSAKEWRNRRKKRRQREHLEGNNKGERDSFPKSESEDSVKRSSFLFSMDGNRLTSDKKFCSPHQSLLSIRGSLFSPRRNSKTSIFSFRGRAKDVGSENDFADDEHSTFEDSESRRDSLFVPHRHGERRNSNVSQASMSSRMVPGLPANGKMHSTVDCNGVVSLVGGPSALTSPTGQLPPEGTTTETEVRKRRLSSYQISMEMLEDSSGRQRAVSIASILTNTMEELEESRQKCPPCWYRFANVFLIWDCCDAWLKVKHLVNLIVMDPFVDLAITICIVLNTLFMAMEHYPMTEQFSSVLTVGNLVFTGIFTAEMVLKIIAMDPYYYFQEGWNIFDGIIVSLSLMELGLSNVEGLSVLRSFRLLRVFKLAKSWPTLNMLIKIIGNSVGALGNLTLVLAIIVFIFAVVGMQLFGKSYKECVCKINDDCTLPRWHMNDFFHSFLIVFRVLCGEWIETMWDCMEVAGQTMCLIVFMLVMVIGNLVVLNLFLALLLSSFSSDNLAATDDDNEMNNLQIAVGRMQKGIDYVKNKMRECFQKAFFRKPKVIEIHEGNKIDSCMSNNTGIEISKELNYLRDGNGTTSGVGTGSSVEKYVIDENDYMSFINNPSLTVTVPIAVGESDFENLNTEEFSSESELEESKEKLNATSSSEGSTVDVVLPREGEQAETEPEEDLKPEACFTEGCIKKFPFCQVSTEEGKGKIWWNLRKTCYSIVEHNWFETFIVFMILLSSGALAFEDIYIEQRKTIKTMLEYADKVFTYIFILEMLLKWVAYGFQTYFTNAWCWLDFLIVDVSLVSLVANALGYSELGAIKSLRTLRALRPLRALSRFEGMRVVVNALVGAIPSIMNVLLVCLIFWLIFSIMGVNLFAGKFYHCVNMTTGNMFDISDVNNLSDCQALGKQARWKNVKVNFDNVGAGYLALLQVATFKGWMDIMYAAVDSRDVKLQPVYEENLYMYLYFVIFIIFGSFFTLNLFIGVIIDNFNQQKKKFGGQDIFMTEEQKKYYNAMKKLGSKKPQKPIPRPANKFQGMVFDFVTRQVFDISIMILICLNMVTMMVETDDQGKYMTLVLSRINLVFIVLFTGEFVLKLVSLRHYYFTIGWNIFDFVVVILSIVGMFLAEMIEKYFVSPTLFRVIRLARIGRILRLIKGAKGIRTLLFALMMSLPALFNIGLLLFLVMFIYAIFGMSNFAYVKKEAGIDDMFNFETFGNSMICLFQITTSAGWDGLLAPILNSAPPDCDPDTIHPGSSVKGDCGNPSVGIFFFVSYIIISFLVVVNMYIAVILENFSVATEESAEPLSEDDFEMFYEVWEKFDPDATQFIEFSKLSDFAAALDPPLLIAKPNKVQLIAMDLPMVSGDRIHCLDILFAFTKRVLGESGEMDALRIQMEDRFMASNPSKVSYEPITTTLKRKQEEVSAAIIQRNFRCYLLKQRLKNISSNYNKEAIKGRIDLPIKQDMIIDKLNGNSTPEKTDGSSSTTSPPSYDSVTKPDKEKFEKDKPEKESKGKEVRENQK

[3] = IonWorks Quattro, clamped to −110 mV, depolarized to −10 mV, 5 min after compound, n=2, read-out: IWQ Use Nav1.5
[4] = clamped to −110 mV, depolarized to −10 mV, 5 min after compound, n=2

Chain of hNav1.5 (Q14524 whole entry, looked up): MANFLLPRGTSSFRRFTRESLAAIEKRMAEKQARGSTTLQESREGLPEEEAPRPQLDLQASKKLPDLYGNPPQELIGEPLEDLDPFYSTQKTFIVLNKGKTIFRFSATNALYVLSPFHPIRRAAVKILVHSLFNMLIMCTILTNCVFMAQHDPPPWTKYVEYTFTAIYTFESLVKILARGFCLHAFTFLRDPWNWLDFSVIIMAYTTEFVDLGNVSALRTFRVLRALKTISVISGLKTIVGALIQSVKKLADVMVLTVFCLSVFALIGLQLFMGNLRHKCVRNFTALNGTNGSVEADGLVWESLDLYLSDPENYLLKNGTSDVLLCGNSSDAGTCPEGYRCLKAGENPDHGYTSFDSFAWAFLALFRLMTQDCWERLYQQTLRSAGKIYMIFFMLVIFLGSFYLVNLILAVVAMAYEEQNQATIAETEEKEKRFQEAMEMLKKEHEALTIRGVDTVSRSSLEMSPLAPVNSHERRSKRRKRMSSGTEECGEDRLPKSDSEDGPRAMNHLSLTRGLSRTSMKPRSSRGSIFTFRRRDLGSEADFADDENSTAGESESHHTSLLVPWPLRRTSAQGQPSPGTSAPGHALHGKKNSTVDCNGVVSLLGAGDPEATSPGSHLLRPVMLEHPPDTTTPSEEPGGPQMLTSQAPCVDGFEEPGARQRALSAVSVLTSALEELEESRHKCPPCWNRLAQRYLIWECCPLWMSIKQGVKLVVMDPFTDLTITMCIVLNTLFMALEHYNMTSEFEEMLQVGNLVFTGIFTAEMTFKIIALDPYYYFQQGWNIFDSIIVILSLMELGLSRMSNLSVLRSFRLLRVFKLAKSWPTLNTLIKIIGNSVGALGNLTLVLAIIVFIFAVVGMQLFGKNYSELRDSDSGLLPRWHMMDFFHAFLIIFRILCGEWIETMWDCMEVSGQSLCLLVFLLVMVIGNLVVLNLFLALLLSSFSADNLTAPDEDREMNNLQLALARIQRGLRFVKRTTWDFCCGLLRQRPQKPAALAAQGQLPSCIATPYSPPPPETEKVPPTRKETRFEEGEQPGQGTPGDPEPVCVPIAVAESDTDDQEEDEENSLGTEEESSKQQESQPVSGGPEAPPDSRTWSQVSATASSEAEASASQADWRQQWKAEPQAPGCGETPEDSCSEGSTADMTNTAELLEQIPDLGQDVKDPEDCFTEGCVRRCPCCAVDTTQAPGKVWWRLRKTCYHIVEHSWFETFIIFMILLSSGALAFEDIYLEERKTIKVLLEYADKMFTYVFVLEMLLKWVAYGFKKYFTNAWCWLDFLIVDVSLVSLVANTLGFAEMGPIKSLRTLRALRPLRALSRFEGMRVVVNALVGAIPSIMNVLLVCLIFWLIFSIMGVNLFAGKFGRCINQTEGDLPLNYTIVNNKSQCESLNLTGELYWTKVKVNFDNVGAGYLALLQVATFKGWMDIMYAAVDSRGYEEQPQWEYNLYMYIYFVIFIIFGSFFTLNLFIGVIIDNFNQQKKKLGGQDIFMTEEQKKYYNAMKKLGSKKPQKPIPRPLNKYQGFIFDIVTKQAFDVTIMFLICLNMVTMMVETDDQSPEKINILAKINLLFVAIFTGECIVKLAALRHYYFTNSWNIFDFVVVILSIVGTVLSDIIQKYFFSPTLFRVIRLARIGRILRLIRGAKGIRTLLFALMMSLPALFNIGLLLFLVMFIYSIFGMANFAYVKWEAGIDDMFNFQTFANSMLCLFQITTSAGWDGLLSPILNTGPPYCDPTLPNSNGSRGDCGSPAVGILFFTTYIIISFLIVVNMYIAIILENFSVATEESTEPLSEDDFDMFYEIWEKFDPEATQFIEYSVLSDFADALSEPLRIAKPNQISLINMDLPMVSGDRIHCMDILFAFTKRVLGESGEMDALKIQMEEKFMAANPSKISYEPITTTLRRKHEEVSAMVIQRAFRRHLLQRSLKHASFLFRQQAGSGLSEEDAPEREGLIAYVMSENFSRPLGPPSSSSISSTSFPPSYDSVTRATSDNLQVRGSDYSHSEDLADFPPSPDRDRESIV

Structure (SMILES) | IC50 [1, 3] [µM] | IC50 [2, 4] [µM] | IC50 ([2]; use-dependent block, hNav1.3) [µM] | IC50 ([1]; IWQ Use Nav1.5 (μM)) [µM] | further results
CC[C@H](C)[C@@H]1NC(=O)[C@@H]2CSSC[C@@H]3NC(=O)[C@H](C(C)C)NC(=O)[C@H](CC(C)C)NC(=O)[C@H](CC(N)=O)NC(=O)[C@@H]4CCCN4C(=O)[C@H](CCCNC(=N)N)NC(=O)[C@H](CSSC[C@H](NC(=O)[C@@H](N)CC(=O)O)C(=O)N[C@@H](CCCNC(=N)N)C(=O)NCC(=O)N[C@@H](Cc4ccccc4)C(=O)N[C@@H](CCSC)C(=O)N[C@@H](CCCNC(=N)N)C(=O)N[C@@H](CCCCN)C(=O)N2)NC(=O)[C@H](CSSC[C@@H](C(=O)N[C@@H](CCCCN)C(=O)N[C@@H](Cc2ccc(O)cc2)C(=O)N[C@H](C(=O)N[C@@H](Cc2ccccc2)C(N)=O)C(C)C)NC(=O)[C@H](Cc2c[nH]c4ccccc24)NC(=O)[C@H](CCCCN)NC(=O)[C@H](Cc2cnc[nH]2)NC(=O)[C@H]([C@@H](C)O)NC(=O)[C@H](CCCNC(=N)N)NC(=O)[C@H](CO)NC3=O)NC(=O)[C@H](CCCCN)NC(=O)[C@H](CC(=O)O)NC(=O)[C@H](CC(N)=O)NC(=O)[C@H](CC(=O)O)NC(=O)[C@@H]2CCCN2C1=O [SEQ ID NO: 155] (H-DCRGFMRKCIPDNDKCCRPNLVCSRTHKWCKYVF-NH2; disulfide 2-17, 9-23, 16-30) | 8.45 | 0.05 |  |  | 
CC[C@H](C)[C@@H]1NC(=O)[C@@H]2CSSC[C@@H]3NC(=O)[C@H](C(C)C)NC(=O)[C@H](CC(C)C)NC(=O)[C@H](CC(N)=O)NC(=O)[C@@H]4CCCN4C(=O)[C@H](CCCNC(=N)N)NC(=O)[C@H](CSSC[C@H](NC(=O)[C@@H](N)CC(=O)O)C(=O)N[C@@H](CC(C)C)C(=O)NCC(=O)N[C@@H](CCCNC(=N)N)C(=O)N[C@@H](CCSC)C(=O)N[C@@H](CCCNC(=N)N)C(=O)N[C@@H](CCCCN)C(=O)N2)NC(=O)[C@H](CSSC[C@@H](C(=O)N[C@@H](CCCCN)C(=O)N[C@@H](Cc2ccc(O)cc2)C(=O)N[C@H](C(=O)N[C@@H](Cc2ccccc2)C(N)=O)C(C)C)NC(=O)[C@H](Cc2c[nH]c4ccccc24)NC(=O)[C@H](CCCCN)NC(=O)[C@H](Cc2cnc[nH]2)NC(=O)[C@H]([C@@H](C)O)NC(=O)[C@H](CCCNC(=N)N)NC(=O)[C@H](CO)NC3=O)NC(=O)[C@H](CCCCN)NC(=O)[C@H](CC(=O)O)NC(=O)[C@H](CC(N)=O)NC(=O)[C@H](CC(=O)O)NC(=O)[C@@H]2CCCN2C1=O [SEQ ID NO: 156] (H-DCLGRMRKCIPDNDKCCRPNLVCSRTHKWCKYVF-NH2; disulfide 2-17, 9-23, 16-30) | 12.6 | 4.09 |  |  | 
CC[C@H](C)[C@@H]1NC(=O)[C@@H]2CSSC[C@@H]3NC(=O)[C@H](C(C)C)NC(=O)[C@H](CC(C)C)NC(=O)[C@H](CC(N)=O)NC(=O)[C@@H]4CCCN4C(=O)[C@H](CCCNC(=N)N)NC(=O)[C@H](CSSC[C@H](NC(=O)[C@@H](N)CC(=O)O)C(=O)N[C@@H](CC(C)C)C(=O)N[C@@H](Cc4c[nH]c5ccccc45)C(=O)N[C@@H](Cc4ccccc4)C(=O)N[C@@H](CCSC)C(=O)N[C@@H](CCCNC(=N)N)C(=O)N[C@@H](CCCCN)C(=O)N2)NC(=O)[C@H](CSSC[C@@H](C(=O)N[C@@H](CCCCN)C(=O)N[C@@H](Cc2ccc(O)cc2)C(=O)N[C@H](C(=O)N[C@@H](Cc2ccccc2)C(N)=O)C(C)C)NC(=O)[C@H](Cc2c[nH]c4ccccc24)NC(=O)[C@H](CCCCN)NC(=O)[C@H](Cc2cnc[nH]2)NC(=O)[C@H]([C@@H](C)O)NC(=O)[C@H](CCCNC(=N)N)NC(=O)[C@H](CO)NC3=O)NC(=O)[C@H](CCCCN)NC(=O)[C@H](CC(=O)O)NC(=O)[C@H](CC(N)=O)NC(=O)[C@H](CC(=O)O)NC(=O)[C@@H]2CCCN2C1=O [SEQ ID NO: 169] (H-DCLWFMRKCIPDNDKCCRPNLVCSRTHKWCKYVF-NH2; disulfide 2-17, 9-23, 16-30) | 10.3 | 0.03 |  |  | 
CC[C@H](C)[C@@H]1NC(=O)[C@@H]2CSSC[C@@H]3NC(=O)[C@H](C(C)C)NC(=O)[C@H](CC(C)C)NC(=O)[C@H](CC(N)=O)NC(=O)[C@@H]4CCCN4C(=O)[C@H](CCCNC(=N)N)NC(=O)[C@H](CSSC[C@H](NC(=O)[C@@H](N)CC(=O)O)C(=O)N[C@@H](CC(C)C)C(=O)NCC(=O)N[C@@H](Cc4ccccc4)C(=O)N[C@@H](CCSC)C(=O)N[C@@H](C)C(=O)N[C@@H](CCCCN)C(=O)N2)NC(=O)[C@H](CSSC[C@@H](C(=O)N[C@@H](CCCCN)C(=O)N[C@@H](Cc2ccc(O)cc2)C(=O)N[C@H](C(=O)N[C@@H](Cc2ccccc2)C(N)=O)C(C)C)NC(=O)[C@H](Cc2c[nH]c4ccccc24)NC(=O)[C@H](CCCCN)NC(=O)[C@H](Cc2cnc[nH]2)NC(=O)[C@H]([C@@H](C)O)NC(=O)[C@H](CCCNC(=N)N)NC(=O)[C@H](CO)NC3=O)NC(=O)[C@H](CCCCN)NC(=O)[C@H](CC(=O)O)NC(=O)[C@H](CC(N)=O)NC(=O)[C@H](CC(=O)O)NC(=O)[C@@H]2CCCN2C1=O [[Ala7]GpTx-1(1-34)] (H-DCLGFMAKCIPDNDKCCRPNLVCSRTHKWCKYVF-NH2; disulfide 2-17, 9-23, 16-30) |  |  | 0.83 |  | IC50 ([1]; IonWorks Quattro, use-dependent block, hNav1.5, read-out: IWQ Use Nav1.5): 21.5 µM
CC[C@H](C)[C@@H]1NC(=O)[C@@H]2CSSC[C@@H]3NC(=O)[C@H](C(C)C)NC(=O)[C@H](CC(C)C)NC(=O)[C@H](CC(N)=O)NC(=O)[C@@H]4CCCN4C(=O)[C@H](CCCNC(=N)N)NC(=O)[C@H](CSSC[C@H](NC(=O)[C@@H](N)CC(=O)O)C(=O)N[C@@H](CC(C)C)C(=O)NCC(=O)N[C@@H](Cc4ccccc4)C(=O)N[C@@H](CCSC)C(=O)N[C@@H](CCCNC(=N)N)C(=O)N[C@@H](CCC(=O)O)C(=O)N2)NC(=O)[C@H](CSSC[C@@H](C(=O)N[C@@H](CCCCN)C(=O)N[C@@H](Cc2ccc(O)cc2)C(=O)N[C@H](C(=O)N[C@@H](Cc2ccccc2)C(N)=O)C(C)C)NC(=O)[C@H](Cc2c[nH]c4ccccc24)NC(=O)[C@H](CCCCN)NC(=O)[C@H](Cc2cnc[nH]2)NC(=O)[C@H]([C@@H](C)O)NC(=O)[C@H](CCCNC(=N)N)NC(=O)[C@H](CO)NC3=O)NC(=O)[C@H](CCCCN)NC(=O)[C@H](CC(=O)O)NC(=O)[C@H](CC(N)=O)NC(=O)[C@H](CC(=O)O)NC(=O)[C@@H]2CCCN2C1=O [[Glu8]GpTx-1(1-34)] (H-DCLGFMRECIPDNDKCCRPNLVCSRTHKWCKYVF-NH2; disulfide 2-17, 9-23, 16-30) |  |  | 1.36 | 24.9 | 
CC[C@H](C)[C@@H]1NC(=O)[C@@H]2CSSC[C@@H]3NC(=O)[C@H](C(C)C)NC(=O)[C@H](CC(C)C)NC(=O)[C@H](CC(N)=O)NC(=O)[C@@H]4CCCN4C(=O)[C@H](CCCNC(=N)N)NC(=O)[C@H](CSSC[C@H](NC(=O)[C@@H](N)CC(=O)O)C(=O)N[C@@H](CC(C)C)C(=O)NCC(=O)N[C@@H](Cc4ccccc4)C(=O)N[C@@H](CCSC)C(=O)N[C@@H](CCCNC(=N)N)C(=O)N[C@@H](CCCCN)C(=O)N2)NC(=O)[C@H](CSSC[C@@H](C(=O)N[C@@H](CCCCN)C(=O)N[C@@H](Cc2ccc(O)cc2)C(=O)N[C@H](C(=O)N[C@@H](Cc2ccccc2)C(N)=O)C(C)C)NC(=O)[C@H](Cc2c[nH]c4ccccc24)NC(=O)[C@H](CCCCN)NC(=O)[C@H](Cc2cnc[nH]2)NC(=O)[C@H]([C@@H](C)O)NC(=O)[C@H](CCCNC(=N)N)NC(=O)[C@H](CO)NC3=O)NC(=O)[C@H](CCCCN)NC(=O)[C@H](CC(=O)O)NC(=O)[C@H](CC(N)=O)NC(=O)[C@H](C)NC(=O)[C@@H]2CCCN2C1=O [compound 4] (H-DCLGFMRKCIPANDKCCRPNLVCSRTHKWCKYVF-NH2; disulfide 2-17, 9-23, 16-30) |  |  |  | 8.05 | IC50 ([2]; Use): 0.13 µM
